Measured values: the supplement of paper PMC10307832

Experiments:
Assay in all cases: relative viability (nuclei count vs DMSO), 5 days (fraction); higher = more cells survive
A-427 = test system: A-427
How it was run: (§1)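 For relative viability, nuclei counts in treated wells were divided by those in vehicle wells. Lung cancer cell lines had been pin-tool dosed in 1536-well plates the day after seeding and cultured for 5 days, then fixed and stained in one step (final 0.05% Triton X-100, 1% formaldehyde, 1 ug/ml Hoechst) and imaged at 4×. Doses were one drug alone or a fixed anchor-drug dose plus five library-drug doses (not always all listed) in √10 steps, and values are duplicate-plate medians.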

COR-L 105 = test system: COR-L 105
How it was run: as §1

ChaGo-K-1 = test system: ChaGo-K-1
How it was run: as §1

EKVX = test system: EKVX
How it was run: as §1

EMC-BAC-2 = test system: EMC-BAC-2
How it was run: as §1

H3255 = test system: H3255
How it was run: as §1

HCC-366 = test system: HCC-366
How it was run: as §1

LK-2 = test system: LK-2
How it was run: as §1

LOU-NH91 = test system: LOU-NH91
How it was run: as §1

NCI-H1666 = test system: NCI-H1666
How it was run: as §1

NCI-H1734 = test system: NCI-H1734
How it was run: as §1

NCI-H1755 = test system: NCI-H1755
How it was run: as §1

NCI-H1975 = test system: NCI-H1975
How it was run: as §1

NCI-H2170 = test system: NCI-H2170
How it was run: as §1

NCI-H23 = test system: NCI-H23
How it was run: as §1

NCI-H441 = test system: NCI-H441
How it was run: as §1

NCI-H520 = test system: NCI-H520
How it was run: as §1

NCI-H596 = test system: NCI-H596
How it was run: as §1

PC-3 [JPC-3] = test system: PC-3 [JPC-3]
How it was run: as §1

SK-MES-1 = test system: SK-MES-1
How it was run: as §1

SW 900 = test system: SW 900
How it was run: as §1

## Nc1ccn([C@@H]2O[C@H](CO)[C@@H](O)[C@@H]2O)c(=O)n1 [Cytarabine] + CC(=O)Nc1cccc(-n2c(=O)n(C3CC3)c(=O)c3c(Nc4ccc(I)cc4F)n(C)c(=O)c(C)c32)c1 [Trametinib] (partner 0.02 µM)
A-427; first compound 0.005 µM
  relative viability: 0.714
A-427; first compound 0.01581 µM
  relative viability: 0.616
A-427; first compound 0.05 µM
  relative viability: 0.381
A-427; first compound 0.1581 µM
  relative viability: 0.273
A-427; first compound 0.5 µM
  relative viability: 0.225
COR-L 105; first compound 0.005 µM
  relative viability: 0.435
COR-L 105; first compound 0.01581 µM
  relative viability: 0.473
COR-L 105; first compound 0.05 µM
  relative viability: 0.438
COR-L 105; first compound 0.1581 µM
  relative viability: 0.315
COR-L 105; first compound 0.5 µM
  relative viability: 0.302
ChaGo-K-1; first compound 0.005 µM
  relative viability: 0.688
ChaGo-K-1; first compound 0.01581 µM
  relative viability: 0.625
ChaGo-K-1; first compound 0.05 µM
  relative viability: 0.504
ChaGo-K-1; first compound 0.1581 µM
  relative viability: 0.308
ChaGo-K-1; first compound 0.5 µM
  relative viability: 0.247
EKVX; first compound 0.005 µM
  relative viability: 0.584
EKVX; first compound 0.01581 µM
  relative viability: 0.285
EKVX; first compound 0.05 µM
  relative viability: 0.295
EKVX; first compound 0.5 µM
  relative viability: 0.167
EMC-BAC-2; first compound 0.005 µM
  relative viability: 0.972
EMC-BAC-2; first compound 0.01581 µM
  relative viability: 0.902
EMC-BAC-2; first compound 0.05 µM
  relative viability: 0.842
EMC-BAC-2; first compound 0.1581 µM
  relative viability: 0.497
EMC-BAC-2; first compound 0.5 µM
  relative viability: 0.427
H3255; first compound 0.005 µM
  relative viability: 0.637
H3255; first compound 0.01581 µM
  relative viability: 0.652
H3255; first compound 0.05 µM
  relative viability: 0.639
H3255; first compound 0.1581 µM
  relative viability: 0.559
H3255; first compound 0.5 µM
  relative viability: 0.533
HCC-366; first compound 0.005 µM
  relative viability: 0.276
HCC-366; first compound 0.01581 µM
  relative viability: 0.33
HCC-366; first compound 0.05 µM
  relative viability: 0.178
HCC-366; first compound 0.1581 µM
  relative viability: 0.0948
HCC-366; first compound 0.5 µM
  relative viability: 0.086
LK-2; first compound 0.005 µM
  relative viability: 1.01
LK-2; first compound 0.01581 µM
  relative viability: 0.701
LK-2; first compound 0.05 µM
  relative viability: 0.479
LK-2; first compound 0.1581 µM
  relative viability: 0.226
LK-2; first compound 0.5 µM
  relative viability: 0.268
LOU-NH91; first compound 0.005 µM
  relative viability: 0.758
LOU-NH91; first compound 0.01581 µM
  relative viability: 0.807
LOU-NH91; first compound 0.05 µM
  relative viability: 0.699
LOU-NH91; first compound 0.1581 µM
  relative viability: 0.657
LOU-NH91; first compound 0.5 µM
  relative viability: 0.644
NCI-H1666; first compound 0.005 µM
  relative viability: 0.806
NCI-H1666; first compound 0.01581 µM
  relative viability: 0.728
NCI-H1666; first compound 0.05 µM
  relative viability: 0.76
NCI-H1666; first compound 0.1581 µM
  relative viability: 0.646
NCI-H1666; first compound 0.5 µM
  relative viability: 0.592
NCI-H1734; first compound 0.005 µM
  relative viability: 0.361
NCI-H1734; first compound 0.01581 µM
  relative viability: 0.264
NCI-H1734; first compound 0.05 µM
  relative viability: 0.203
NCI-H1734; first compound 0.1581 µM
  relative viability: 0.132
NCI-H1734; first compound 0.5 µM
  relative viability: 0.119
NCI-H1755; first compound 0.005 µM
  relative viability: 0.827
NCI-H1755; first compound 0.01581 µM
  relative viability: 0.76
NCI-H1755; first compound 0.05 µM
  relative viability: 0.681
NCI-H1755; first compound 0.1581 µM
  relative viability: 0.512
NCI-H1755; first compound 0.5 µM
  relative viability: 0.407
NCI-H1975; first compound 0.005 µM
  relative viability: 0.34
NCI-H1975; first compound 0.01581 µM
  relative viability: 0.267
NCI-H1975; first compound 0.05 µM
  relative viability: 0.631
NCI-H1975; first compound 0.1581 µM
  relative viability: 0.25
NCI-H1975; first compound 0.5 µM
  relative viability: 0.24
NCI-H2170; first compound 0.005 µM
  relative viability: 0.741
NCI-H2170; first compound 0.01581 µM
  relative viability: 0.665
NCI-H2170; first compound 0.05 µM
  relative viability: 0.581
NCI-H2170; first compound 0.1581 µM
  relative viability: 0.374
NCI-H2170; first compound 0.5 µM
  relative viability: 0.299
NCI-H23; first compound 0.005 µM
  relative viability: 0.441
NCI-H23; first compound 0.01581 µM
  relative viability: 0.355
NCI-H23; first compound 0.05 µM
  relative viability: 0.223
NCI-H23; first compound 0.1581 µM
  relative viability: 0.165
NCI-H23; first compound 0.5 µM
  relative viability: 0.14
NCI-H441; first compound 0.005 µM
  relative viability: 0.361
NCI-H441; first compound 0.01581 µM
  relative viability: 0.421
NCI-H441; first compound 0.05 µM
  relative viability: 0.451
NCI-H441; first compound 0.1581 µM
  relative viability: 0.242
NCI-H441; first compound 0.5 µM
  relative viability: 0.199
NCI-H520; first compound 0.005 µM
  relative viability: 0.696
NCI-H520; first compound 0.01581 µM
  relative viability: 0.684
NCI-H520; first compound 0.05 µM
  relative viability: 0.579
NCI-H520; first compound 0.1581 µM
  relative viability: 0.477
NCI-H520; first compound 0.5 µM
  relative viability: 0.484
NCI-H596; first compound 0.005 µM
  relative viability: 0.812
NCI-H596; first compound 0.01581 µM
  relative viability: 0.759
NCI-H596; first compound 0.05 µM
  relative viability: 0.69
NCI-H596; first compound 0.1581 µM
  relative viability: 0.5
NCI-H596; first compound 0.5 µM
  relative viability: 0.499
PC-3 [JPC-3]; first compound 0.005 µM
  relative viability: 0.705
PC-3 [JPC-3]; first compound 0.01581 µM
  relative viability: 0.73
PC-3 [JPC-3]; first compound 0.05 µM
  relative viability: 0.589
PC-3 [JPC-3]; first compound 0.1581 µM
  relative viability: 0.423
PC-3 [JPC-3]; first compound 0.5 µM
  relative viability: 0.498
SK-MES-1; first compound 0.005 µM
  relative viability: 0.545
SK-MES-1; first compound 0.01581 µM
  relative viability: 0.603
SK-MES-1; first compound 0.05 µM
  relative viability: 0.315
SK-MES-1; first compound 0.1581 µM
  relative viability: 0.215
SK-MES-1; first compound 0.5 µM
  relative viability: 0.227
SW 900; first compound 0.005 µM
  relative viability: 0.83
SW 900; first compound 0.01581 µM
  relative viability: 0.653
SW 900; first compound 0.05 µM
  relative viability: 0.662
SW 900; first compound 0.1581 µM
  relative viability: 0.23
SW 900; first compound 0.5 µM
  relative viability: 0.243
